{"source": "paper PMC10247784", "about": "“Physiological activation of human and mouse bitter taste receptors by bile acids” (Communications Biology, 2023)", "target": "T1, human TAS2R4 (Homo sapiens, UniProt Q9NYW5)", "T1 construct": "expressed in transfected cells; host or cells: HEK293T-Gα16gust44", "T1 sequence (Q9NYW5 1-299)": "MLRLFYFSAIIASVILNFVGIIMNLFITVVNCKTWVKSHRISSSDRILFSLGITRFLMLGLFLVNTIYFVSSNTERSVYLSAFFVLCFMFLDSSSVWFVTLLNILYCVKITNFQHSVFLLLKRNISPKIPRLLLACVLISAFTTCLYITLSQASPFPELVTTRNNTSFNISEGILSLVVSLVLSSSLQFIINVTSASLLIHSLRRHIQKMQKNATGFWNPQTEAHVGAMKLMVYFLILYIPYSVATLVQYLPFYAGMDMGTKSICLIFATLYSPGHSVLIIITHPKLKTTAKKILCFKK", "assay": "Calcium imaging assay (FLIPR), HEK293T-Gα16gust44 cells transfected with human TAS2R4", "type": "cell-based", "description": "This set of bile acids was chosen because of their commercial availability in high purities, their diversity within the class of bile acids and their previous detection and quantitation in human blood. Stock solutions were prepared in DMSO.\nAs basal growth medium for the HEK293T-Gα16gust44 cell line[17],[59] served Dulbecco’s modified eagle medium (DMEM) (Thermo Fisher Scientific, Darmstadt, Germany) supplemented with 10 % fetal bovine serum (Sigma-Aldrich, Steinheim, Germany), 2 mM L-glutamine (Sigma-Aldrich, Steinheim, Germany), 100 units/ml penicillin (Sigma Aldrich, Steinheim, Germany) and 100 µg/ml streptomycin (Sigma Aldrich, Steinheim, Germany). Growth conditions were 37 °C, 5 % CO2 and saturated air-humidity[60].\nHEK293T-Gα16gust44 cells were seeded on poly-D-lysine (10 µg/ml) coated 96-well plates to reach a confluence of 40-60 % the next day. For transient transfection 150 ng of plasmid DNA containing the receptor of interest and 0.3 µl lipofectamine 2000 (Thermo Fisher Scientific, Darmstadt, Germany) per well were used and transfection took place according to the manual of lipofectamine 2000. […] The empty vector DNA (mock) was transfected as negative control[14],[41].\nCells were loaded using the calcium-sensitive fluorescent dye Fluo-4-AM (Abcam, Cambridge, Great Britain) in the presence of 2.5 mM probenecid (Sigma-Aldrich, Steinheim, Germany) the day after transfection[13],[41]. 1 h after loading, cells were washed with C1 buffer using a BioTek Cell Washer, incubated in the dark for half an hour and washed again. For automated agonist application and measurement of fluorescence changes, a FLIPR^TETRA device (Molecular Devices, San José, United States) was used. Viability of cells was tested by application of 100 nM Somatostatin 14 (Bachem, Bubendorf, Switzerland)[42].\nMeasured data were negative control corrected by subtracting the signal of the mock-transfected cells and exported to Microsoft Excel using the FLIPR software ScreenWorks 4.2. In Microsoft Excel software, standardization of maximum fluorescence intensities to the basal fluorescence and normalization to the buffer-only control was done to calculate the relative fluorescence changes (ΔF/F).\nInitial screening experiments performed in duplicate wells were confirmed by at least one replication and representative traces were selected for display. All dose-response relationships were determined by three independent experiments (biological replicates) performed in duplicates (technical replicates). Threshold concentrations, defined as lowest substance concentrations leading to statistically significant elevated fluorescence changes in receptor-transfected cells compared with empty vector-transfected cells, were determined using SigmaPlot with Student’s t-test to evaluate statistical significance (p < 0.01).", "note": "“And” between values parts separate entries of the source, which are not always exact repeats. Identical values can stand only once."}
{"smiles": "C[C@H](CCC(=O)NCC(=O)O)[C@H]1CC[C@H]2[C@@H]3[C@H](O)C[C@@H]4C[C@H](O)CC[C@]4(C)[C@H]3C[C@H](O)[C@]12C", "note": "[Glycocholic Acid, glycocholic acid]", "values": [{"measurement": "Efficacy = maximal amplitude (ΔF/F)", "setting": "TAS2R4, bile acids, mean", "value": 0.1626}, {"measurement": "Efficacy (maximal amplitude ΔF/F), individual data points", "setting": "TAS2R4, bile acids, single replicates, listed as GCA", "value": "0.1367 and 0.1786 and 0.1725"}, {"measurement": "Δ F/F", "setting": "TAS2R4, conc. 0,01 mM", "value": 0.01565}, {"measurement": "Δ F/F", "setting": "TAS2R4, conc. 0,1 mM", "value": 0.106}, {"measurement": "Δ F/F", "setting": "TAS2R4, conc. 0,03 mM", "value": 0.03923}, {"measurement": "Δ F/F", "setting": "TAS2R4, conc. 0,3 mM", "value": 0.1626}, {"measurement": "Δ F/F", "setting": "TAS2R4, conc. 0,001 mM", "value": 0.006443}, {"measurement": "Δ F/F", "setting": "TAS2R4, conc. 0,003 mM", "value": 0.006613}, {"measurement": "RLU, fluorescence trace", "setting": "Time (s) 0", "value": 0, "unit": "RLU"}, {"measurement": "RLU, fluorescence trace", "setting": "Time (s) 2", "value": 4.14, "unit": "RLU"}, {"measurement": "RLU, fluorescence trace", "setting": "Time (s) 4", "value": -20.6032, "unit": "RLU"}, {"measurement": "RLU, fluorescence trace", "setting": "Time (s) 6", "value": -25.8877, "unit": "RLU"}, {"measurement": "RLU, fluorescence trace", "setting": "Time (s) 8", "value": -29.799, "unit": "RLU"}, {"measurement": "RLU, fluorescence trace", "setting": "Time (s) 12", "value": -12.9106, "unit": "RLU"}, {"measurement": "RLU, fluorescence trace", "setting": "Time (s) 14", "value": -6.673, "unit": "RLU"}, {"measurement": "RLU, fluorescence trace", "setting": "Time (s) 16", "value": -18.2287, "unit": "RLU"}, {"measurement": "RLU, fluorescence trace", "setting": "Time (s) 18", "value": -27.0676, "unit": "RLU"}, {"measurement": "RLU, fluorescence trace", "setting": "Time (s) 18.766 (TCA, TLCA: 18.782)", "value": -34.2066, "unit": "RLU"}, {"measurement": "RLU, fluorescence trace", "setting": "Time (s) 20.781 (TCA, TLCA: 20.782)", "value": -42.9373, "unit": "RLU"}, {"measurement": "RLU, fluorescence trace", "setting": "Time (s) 22.781 (TCA, TLCA: 22.782)", "value": 15.1075, "unit": "RLU"}, {"measurement": "RLU, fluorescence trace", "setting": "Time (s) 24.781 (TCA, TLCA: 24.782)", "value": 91.6518, "unit": "RLU"}, {"measurement": "RLU, fluorescence trace", "setting": "Time (s) 26.781 (TCA, TLCA: 26.782)", "value": 179.573, "unit": "RLU"}, {"measurement": "RLU, fluorescence trace", "setting": "Time (s) 28.781 (TCA, TLCA: 28.782)", "value": 304.257, "unit": "RLU"}, {"measurement": "RLU, fluorescence trace", "setting": "Time (s) 30.781 (TCA, TLCA: 30.782)", "value": 388.704, "unit": "RLU"}, {"measurement": "RLU, fluorescence trace", "setting": "Time (s) 32.781 (TCA, TLCA: 32.782)", "value": 524.444, "unit": "RLU"}, {"measurement": "RLU, fluorescence trace", "setting": "Time (s) 34.781 (TCA, TLCA: 34.782)", "value": 591.908, "unit": "RLU"}, {"measurement": "RLU, fluorescence trace", "setting": "Time (s) 36.781 (TCA, TLCA: 36.782)", "value": 664.761, "unit": "RLU"}, {"measurement": "RLU, fluorescence trace", "setting": "Time (s) 38.781 (TCA, TLCA: 38.782)", "value": 747.083, "unit": "RLU"}, {"measurement": "RLU, fluorescence trace", "setting": "Time (s) 40.781 (TCA, TLCA: 40.782)", "value": 780.753, "unit": "RLU"}, {"measurement": "RLU, fluorescence trace", "setting": "Time (s) 42.781 (TCA, TLCA: 42.782)", "value": 820.227, "unit": "RLU"}, {"measurement": "RLU, fluorescence trace", "setting": "Time (s) 44.781 (TCA, TLCA: 44.782)", "value": 854.725, "unit": "RLU"}, {"measurement": "RLU, fluorescence trace", "setting": "Time (s) 46.781 (TCA, TLCA: 46.782)", "value": 885.437, "unit": "RLU"}, {"measurement": "RLU, fluorescence trace", "setting": "Time (s) 48.781 (TCA, TLCA: 48.782)", "value": 869.015, "unit": "RLU"}, {"measurement": "RLU, fluorescence trace", "setting": "Time (s) 50.781 (TCA, TLCA: 50.782)", "value": 904.393, "unit": "RLU"}, {"measurement": "RLU, fluorescence trace", "setting": "Time (s) 52.781 (TCA, TLCA: 52.782)", "value": 904.624, "unit": "RLU"}, {"measurement": "RLU, fluorescence trace", "setting": "Time (s) 54.781 (TCA, TLCA: 54.782)", "value": 934.879, "unit": "RLU"}, {"measurement": "RLU, fluorescence trace", "setting": "Time (s) 56.781 (TCA, TLCA: 56.782)", "value": 910.42, "unit": "RLU"}, {"measurement": "RLU, fluorescence trace", "setting": "Time (s) 58.781 (TCA, TLCA: 58.782)", "value": 920.415, "unit": "RLU"}, {"measurement": "RLU, fluorescence trace", "setting": "Time (s) 60.781 (TCA, TLCA: 60.782)", "value": 939.945, "unit": "RLU"}, {"measurement": "RLU, fluorescence trace", "setting": "Time (s) 62.781 (TCA, TLCA: 62.782)", "value": 894.354, "unit": "RLU"}, {"measurement": "RLU, fluorescence trace", "setting": "Time (s) 64.781 (TCA, TLCA: 64.782)", "value": 892.209, "unit": "RLU"}, {"measurement": "RLU, fluorescence trace", "setting": "Time (s) 66.781 (TCA, TLCA: 66.782)", "value": 883.058, "unit": "RLU"}, {"measurement": "RLU, fluorescence trace", "setting": "Time (s) 68.781 (TCA, TLCA: 68.782)", "value": 897.442, "unit": "RLU"}, {"measurement": "RLU, fluorescence trace", "setting": "Time (s) 70.781 (TCA, TLCA: 70.782)", "value": 864.365, "unit": "RLU"}, {"measurement": "RLU, fluorescence trace", "setting": "Time (s) 72.781 (TCA, TLCA: 72.782)", "value": 888.719, "unit": "RLU"}, {"measurement": "RLU, fluorescence trace", "setting": "Time (s) 74.781 (TCA, TLCA: 74.782)", "value": 833.342, "unit": "RLU"}, {"measurement": "RLU, fluorescence trace", "setting": "Time (s) 76.781 (TCA, TLCA: 76.782)", "value": 856.102, "unit": "RLU"}, {"measurement": "RLU, fluorescence trace", "setting": "Time (s) 78.781 (TCA, TLCA: 78.782)", "value": 820.296, "unit": "RLU"}, {"measurement": "RLU, fluorescence trace", "setting": "Time (s) 80.781 (TCA, TLCA: 80.782)", "value": 794.483, "unit": "RLU"}, {"measurement": "RLU, fluorescence trace", "setting": "Time (s) 82.781 (TCA, TLCA: 82.782)", "value": 818.87, "unit": "RLU"}, {"measurement": "RLU, fluorescence trace", "setting": "Time (s) 84.781 (TCA, TLCA: 84.782)", "value": 756.604, "unit": "RLU"}, {"measurement": "RLU, fluorescence trace", "setting": "Time (s) 86.781 (TCA, TLCA: 86.782)", "value": 753.892, "unit": "RLU"}, {"measurement": "RLU, fluorescence trace", "setting": "Time (s) 88.781 (TCA, TLCA: 88.782)", "value": 732.115, "unit": "RLU"}, {"measurement": "RLU, fluorescence trace", "setting": "Time (s) 90.781 (TCA, TLCA: 90.782)", "value": 726.989, "unit": "RLU"}]}
